Consider three compounds from ChEMBL document CHEMBL2034951 (J Med Chem, 2011).

Activity calls are given as the source filed them. The calls are words filed in the database; no cut-off is given here.

Assay [1] deals with T1, Prostaglandin G/H synthase 1 (Ovis aries) (UniProt P05979).
T1 sequence (whole entry): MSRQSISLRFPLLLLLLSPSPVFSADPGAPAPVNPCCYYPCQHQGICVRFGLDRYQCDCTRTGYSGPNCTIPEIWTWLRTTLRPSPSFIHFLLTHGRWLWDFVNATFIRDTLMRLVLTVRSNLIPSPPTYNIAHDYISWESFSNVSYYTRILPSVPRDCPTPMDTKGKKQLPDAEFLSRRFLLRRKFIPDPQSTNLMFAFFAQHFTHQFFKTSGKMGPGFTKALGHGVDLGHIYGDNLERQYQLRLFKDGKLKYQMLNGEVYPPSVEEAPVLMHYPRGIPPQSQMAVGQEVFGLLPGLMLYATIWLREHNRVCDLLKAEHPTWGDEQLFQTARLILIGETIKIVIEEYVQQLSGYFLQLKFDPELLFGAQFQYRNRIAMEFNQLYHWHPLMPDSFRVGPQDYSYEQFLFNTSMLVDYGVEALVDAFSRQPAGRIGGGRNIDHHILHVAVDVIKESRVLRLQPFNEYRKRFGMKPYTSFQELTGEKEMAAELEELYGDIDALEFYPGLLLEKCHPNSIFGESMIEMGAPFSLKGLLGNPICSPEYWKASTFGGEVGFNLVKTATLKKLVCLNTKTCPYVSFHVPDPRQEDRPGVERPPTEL
Put plainly: Reversible binding to ram seminal vesicle COX1 at 300 uM at 600 MHz and 37 degC by saturation transfer difference 1[H]NMR spectroscopy.

Assay [2] concerns the target T2, Prostaglandin G/H synthase 2 (Homo sapiens, UniProt P35354).
T2 sequence (P35354 whole entry): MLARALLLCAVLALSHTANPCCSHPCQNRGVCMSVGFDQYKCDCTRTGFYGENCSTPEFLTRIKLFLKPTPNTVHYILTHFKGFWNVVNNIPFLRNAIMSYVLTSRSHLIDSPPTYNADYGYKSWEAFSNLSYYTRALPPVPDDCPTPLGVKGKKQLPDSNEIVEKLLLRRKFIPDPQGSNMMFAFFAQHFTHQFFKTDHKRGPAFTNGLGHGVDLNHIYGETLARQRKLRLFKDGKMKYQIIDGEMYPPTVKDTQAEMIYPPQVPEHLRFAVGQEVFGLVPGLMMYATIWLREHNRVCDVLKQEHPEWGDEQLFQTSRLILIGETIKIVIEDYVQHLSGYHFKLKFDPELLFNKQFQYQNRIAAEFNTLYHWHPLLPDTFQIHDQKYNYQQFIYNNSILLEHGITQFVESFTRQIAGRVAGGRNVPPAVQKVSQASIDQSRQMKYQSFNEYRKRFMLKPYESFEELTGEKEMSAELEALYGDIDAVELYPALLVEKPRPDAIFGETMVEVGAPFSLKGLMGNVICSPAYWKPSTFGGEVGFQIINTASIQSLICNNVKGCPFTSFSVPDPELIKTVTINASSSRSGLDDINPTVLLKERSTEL
As to the kind of experiment: Instantaneous inhibition of human COX2 measured immediately after incubation of enzyme with compound.

Assay [3] addresses T2, Prostaglandin G/H synthase 2. As to the kind of experiment: Inhibition of human COX2 measured after pre-incubation of enzyme with compound.

`CC(C)Cc1ccc(C(C)C(=O)O)cc1` (stereo not given): in assay [1], the outcome was Active.

With `O=C(O)Cc1ccccc1Nc1c(Cl)cccc1Cl`, the outcome in assay [1] was Active.

`O=C(c1ccccc1)c1ccc2n1CCC2C(=O)O` (racemic) [KETOROLAC TROMETHAMINE]: the 50% inhibitory concentration (IC50) (in general, the concentration needed to halve the response being measured) in assay [2] stood at 60.5 µM; in assay [3], 0.12 µM. In assay [1], the outcome was Active.
